The text below walks through data of patent publication US20100093847A1, “ANTI-OBESITY ACTIVE AGENT AND ANTI-OBESITY METHOD” (priority 2005, published 2010).

In one data set the test system is 3T3-L1 preadipocytes. The data set is described as follows: Quantitative determination of intracellular lipids with Oilred O during differentiation of 3T3-L1 preadipocytes to adipocytes. It counts as cell-based. The following applies: FIG. 3 and FIG. 4; added to culture medium during differentiation induction. On the procedure:
(§1) Cell Culture: 3T3-L1 preadipocytes were incubated using DMRM culture medium containing 10% (by volume) of FBS at 37° C. in the presence of CO2 (5%). In this connection, as the FBS, one which had been inactivated at 56° C. for 30 minutes was used. As the cells, those which were unused (naïve) and which had been kept in liquid nitrogen were used in each experiment. On a 96 well microplate, 5×10^4 cells of the 3T3-L1 preadipocytes were seeded per well and pre-incubated for 48 hours.
Then, the culture medium was removed from the wells, and DMEM culture medium containing insulin (10 μg/ml), dexametazone (0.25 μg/ml) and IBMX (0.5 mM) was added to the wells, and incubation was further performed for 48 hours. Thereafter, differentiation to adipocytes was induce while repeating medium replacement at intervals of 4 days with the use of DMEM culture medium containing 5 μg/ml of insulin only. […]
Quantitative Determination of Intracellular Lipids with Oilred O: The cells incubated in the 96 well microplate were immobilized with formalin, and then an oilred O solution was added thereto to stain lipids in the cells. […] Subsequently, isopropanol was added to each of the wells to elute the pigment (colorant), and absorbance, i.e., optical density at 490 nm was measured using a microplate reader.

Data set [1] has as its system GPDH (glycerol-3-phosphate-dehydrogenase). The data set is described as follows: Measurement of GPDH activity in differentiating 3T3-L1 preadipocytes. The following applies: FIG. 5; compared with no addition. It counts as cell-based. On the procedure:
as §1
Then, the culture medium was removed from the wells, and DMEM culture medium containing insulin (10 μg/ml), dexametazone (0.25 μg/ml) and IBMX (0.5 mM) was added to the wells, and incubation was further performed for 48 hours. Thereafter, differentiation to adipocytes was induce while repeating medium replacement at intervals of 4 days with the use of DMEM culture medium containing 5 μg/ml of insulin only. In this procedure, fucoxanthin was added to the culture medium to examine influence thereof on the differentiation induction.
Measurement of GPDH Activity: For measurement of GPDH (glycerol-3-phosphate-dehydrogenase) activity, a GDP H activity measuring kit (manufactured by Hokudo Co., Ltd.) was used. Specifically, 3T3-L1 preadipocytes were pre-incubated on a 24 well microplate) for 48 hours, and then differentiation to adipocytes was induced in the same manner as described above. […]

In another data set the test system is KK-Ay mice. The data set is described as follows: Animal experiments: KK-Ay mice fed feed containing fucoxanthinol. The format is in vivo. On the procedure:
Animals and Feed: For the animal experiments, KK-Ay mice (female; 3-week-old) were used. Feed for the experiments was prepared in accordance with AIN-93G composition (formulation). Amount of lipid in the feed was 13.5%. In the case where fucoxanthinol was added, 0.2% of the lipid in the feed was replaced with fucoxanthinol. After the preparation, the feed was immediately vacuum-packed and stored at −20° C. or lower until feeding.
Breeding and Analysis: Preliminary Breeding was conducted for a week using the feed for the control group, and individuals which grew with no problem were divided into groups each consisting of 6 mice in such a manner that there were no substantial unevennesses in body weight among the groups. With respect to each of the groups, two mice were housed and bred in each plastic cage spread with sterilized wood chips to cover the floor. In the breeding cage, temperature and humidity were kept at 23±1° C. and 50%, respectively, and each of light and dark periods was 12 hours. The mice were allowed to freely take (ingest) the feed and water, and the breeding with each of the feeds for the experiments was carried out for 24 days.
After termination of the feeding period, the mice were fasted for 12 hours. Thereafter, blood samples were collected from neck vessels in the presence of EDTA under anesthesia with (ethyl) ether. After the collection of blood samples, organs were immediately harvested and washed well with physiological saline to sufficiently clear blood therefrom. Livers were weighed and then stored at −40° C. or lower until subjected to analyses. Leptin concentrations and blood-sugar levels in blood were measured using a commercially available kit.

The subject of data set [2] is large intestine cancer cells. The following applies: according to Non-Patent Document 1; cited from earlier work.
The next data set has as its system adipocytes (fat cells). The following applies: according to Non-Patent Document 2; cited from earlier work.
Where [3] appears, read: 24 days feeding, versus control group.
The mark [4] stands for this setting: after 24 days feeding, versus control group.

Consider `C\C(C=C=C1C(C)(C)C[C@H](O)C[C@@]1(C)O)=C/C=C/C(C)=C/C=C/C=C(C)/C=C/C=C(\C)C(=O)C[C@@]12O[C@]1(C)C[C@@H](O)CC2(C)C` [fucoxanthinol], for which the “fat (lipid) accumulation associated with differentiation of 3T3-L1 preadipocytes to adipocytes (optical density at 490 nm, Oilred O)” value with 3T3-L1 preadipocytes is on record as “markedly controlled”. Also, the “relative GPDH activity (relative amount of adipocytes, preadipocytes = 1)” value in data set [1] was “lowered”. Besides, in the data set on KK-Ay mice (FIG. 6, 0.2% of feed lipid replaced, 24 days, versus control group), the “weight of visceral fat per 100 g of body weight” value is reported as “significantly reduced”. Also, the “leptin concentration in blood” value with KK-Ay mice (FIG. 7, 24 days feeding, versus control group) is reported as “significantly reduced”. Further, in the data set on KK-Ay mice (FIG. 8, 24 days feeding, versus control group), the blood sugar level result is “reduced”.

In the case of fucoxanthin, the “fat (lipid) accumulation associated with differentiation of 3T3-L1 preadipocytes to adipocytes (optical density at 490 nm, Oilred O)” value in the data set with 3T3-L1 preadipocytes is “apparently lower than that of fucoxanthinol”. The “relative GPDH activity (relative amount of adipocytes, preadipocytes = 1)” value in data set [1] was “no significant differences”. For the same molecule, in the data set on KK-Ay mice (setting [3]), the “amount of feed intake” value is “no significant differences” and the “increase in body weight” value is on record as “no significant differences”. In the data set on KK-Ay mice (setting [4]), the “weight of hepatic lipid” value is given as “no significant differences”, the weight of liver result is “no significant differences” and the “weight of small intestine” value is given as “no significant differences”. The “abnormalities in feed intake, glossiness of hair or action” value in the data set on KK-Ay mice (breeding period) is listed as “no abnormalities”. Besides, the “antiproliferative activity / proliferation of large intestine cancer cells” value in data set [2] is reported as “far stronger antiproliferative activity than that of troglytazone”. Besides, in the data set on adipocytes (fat cells), the “differentiation suppressing activity on adipocytes” value is on record as “has differentiation suppressing activity on adipocytes”.
